This note sets out measurements from ChEMBL document CHEMBL1201862, “PubChem BioAssay data set” (2004).

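Grown in 96-well plates, cells were treated for 48 hours with each compound at five concentrations. Insufficient inhibition: endpoint recorded as highest concentration tested. Abbreviation: GI50, concentration required for 50% inhibition of growth.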 The source made the active and inactive calls. Rule as the data show it: active = GI50 up to about 1.1 µM and inactive = higher.

Some test systems named below: HL-60; SK-MEL-2; IGROV-1; OVCAR-5; RPMI-8226; NCI-H226; NCI/ADR-RES; HCT-15; UACC-62; COLO 205; SW-620; TK-10; OVCAR-3; DU-145; SNB-19; T47D; PC-3; SK-MEL-5; Hs-578T.
Experiment in all cases: NCI anticancer screen, dose series, 48 h

As for `CCN1C/C(=C\c2ccc(Cl)cc2)c2[nH]c(=O)c(C#N)c(-c3ccc(Cl)cc3)c2C1`, the GI50 in the assay with HL-60, in the assay on SK-MEL-2, with IGROV-1, in the assay on OVCAR-5, with RPMI-8226 and in the assay with NCI-H226 was > 100 µM (inactive) throughout. For the same molecule, the GI50 with NCI/ADR-RES is > 100 µM (inactive); in the assay on HCT-15 it was over 100 µM; with UACC-62, > 100 µM (inactive); in the assay on COLO 205, > 100 µM (inactive); in the assay on SW-620, > 100 µM (inactive); with TK-10, > 100 µM (inactive). The GI50 in the assay on OVCAR-3, with DU-145, in the assay with SNB-19, with T47D, in the assay on PC-3 and with SK-MEL-5 was > 100 µM (inactive) each time.
Take `NNC(=O)Cn1c2ccc(Br)cc2c2nc3ccccc3nc21`: the GI50 in the assay with SK-MEL-2 is 19.1 µM (inactive); in the assay on IGROV-1, 31 µM (inactive); with OVCAR-5, 53.7 µM (inactive); with RPMI-8226, > 100 µM (inactive); in the assay on NCI-H226 it was > 100 µM (inactive); with NCI/ADR-RES, > 100 µM (inactive). Moreover, the GI50 in the assay with UACC-62 is 56.5 µM (inactive); in the assay on COLO 205, > 100 µM (inactive); in the assay with SW-620, > 100 µM (inactive); in the assay with TK-10 it was 56 µM (inactive); with OVCAR-3, 23.2 µM (inactive); in the assay on DU-145, > 100 µM (inactive). Besides, the GI50 was 80 µM (inactive) in the assay on SNB-19, > 100 µM (inactive) in the assay with T47D, > 100 µM (inactive) in the assay on PC-3 and > 100 µM (inactive) with SK-MEL-5.
As to `CCCCC(=O)Nc1ccc2cc(C(=O)OC)c(ON3C(=O)c4ccccc4C3=O)nc2n1`, the GI50 in the assay on SK-MEL-2 was 37.5 µM (inactive); in the assay on IGROV-1, 16.3 µM (inactive); with OVCAR-5, 23 µM (inactive); in the assay with RPMI-8226 it was 89.9 µM (inactive); with NCI-H226, 22.5 µM (inactive); in the assay on NCI/ADR-RES, 32.6 µM (inactive). Moreover, the GI50 is 40.6 µM in the assay on HCT-15; 64.4 µM (inactive) in the assay on COLO 205; 46 µM (inactive) in the assay with SW-620; 14.6 µM (inactive) with TK-10; 37.1 µM (inactive) with OVCAR-3; 27.9 µM (inactive) in the assay on SNB-19. Moreover, the GI50 in the assay on T47D is 35.3 µM (inactive); in the assay with PC-3, 28.4 µM (inactive); in the assay on SK-MEL-5, 63.8 µM (inactive).
Consider `COc1cc2c(cc1OC)C1CN3CCCC3C(O)C1c1cc(OC)c(OC)cc1-2` (centres undefined), for which the GI50 with HL-60, in the assay with SK-MEL-2, in the assay with IGROV-1, in the assay on OVCAR-5, with RPMI-8226 and in the assay on NCI/ADR-RES was > 100 µM (inactive) each time. The GI50 with HCT-15 was over 100 µM; with UACC-62, > 100 µM (inactive); in the assay with COLO 205, > 100 µM (inactive); in the assay with SW-620 it was > 100 µM (inactive); in the assay on TK-10, > 100 µM (inactive); in the assay with DU-145, > 100 µM (inactive). Further, the GI50 in the assay on SNB-19 is > 100 µM (inactive); in the assay on T47D it was 15.3 µM (inactive); in the assay on Hs-578T, > 100 µM (inactive); with SK-MEL-5, > 100 µM (inactive).
Take `C/C(=N\Nc1nc2ccccc2[nH]1)c1cc2ccccc2cn1`: the GI50 in the assay on HL-60 was < 0.01 µM (active); in the assay with SK-MEL-2, 0.508 µM (active); with IGROV-1, < 0.0175 µM (active); in the assay on OVCAR-5, 0.288 µM (active); with RPMI-8226, < 0.01 µM (active); in the assay with NCI-H226, 0.0382 µM (active). Further, the GI50 is 0.0284 µM (active) in the assay on NCI/ADR-RES; under 0.0106 µM in the assay with HCT-15; 0.0531 µM (active) in the assay on UACC-62; < 0.01 µM (active) in the assay on COLO 205; < 0.012 µM (active) in the assay with SW-620; 0.122 µM (active) with TK-10. The GI50 is 0.442 µM (active) in the assay with DU-145; 0.277 µM (active) with SNB-19; < 0.0352 µM (active) with T47D; 0.0612 µM (active) in the assay on Hs-578T; 0.0494 µM (active) in the assay with SK-MEL-5.
Consider `COC(=O)CCCC(=O)NC1=C(NCc2ccccc2)C(=O)c2ccccc2C1=O`, for which the GI50 with HL-60 is 29 µM (inactive); in the assay with SK-MEL-2, 87.5 µM (inactive); in the assay with IGROV-1 it was 44.2 µM (inactive); in the assay on OVCAR-5, > 100 µM (inactive); with RPMI-8226, 49.5 µM (inactive); in the assay on NCI/ADR-RES, 27.3 µM (inactive). For the same molecule, the GI50 with HCT-15 was 52.4 µM; with UACC-62, 29.2 µM (inactive); with COLO 205 it was 23.8 µM (inactive); with SW-620 it was 60.8 µM (inactive); in the assay with TK-10, > 100 µM (inactive); in the assay on OVCAR-3, 23 µM (inactive). Besides, the GI50 in the assay with DU-145 was > 100 µM (inactive); in the assay on SNB-19, > 100 µM (inactive); in the assay on T47D it was 59.3 µM (inactive); in the assay with Hs-578T it was > 100 µM (inactive).
Regarding `COc1ccc(Cn2c(C)nc3c2C(=O)c2ccccc2C3=O)cc1`, the GI50 is 4.17 µM (inactive) in the assay on HL-60; 13.2 µM (inactive) with SK-MEL-2; 9.86 µM (inactive) with IGROV-1; 14.3 µM (inactive) in the assay with NCI-H226; 1.72 µM with HCT-15; 4.58 µM (inactive) with UACC-62. Besides, the GI50 was 9.02 µM (inactive) with COLO 205; 8.07 µM (inactive) in the assay with SW-620; 11 µM (inactive) with TK-10; 9.84 µM (inactive) in the assay with OVCAR-3; 22.3 µM (inactive) with SNB-19; 7.71 µM (inactive) in the assay with SK-MEL-5.
Turning to `COc1cc(/C=C2\CCC(C)C3=C2NC(=S)NC3c2cc(OC)c(OC)c(OC)c2)cc(OC)c1OC` (centres undefined), the GI50 with HL-60 was 12.5 µM (inactive); in the assay with SK-MEL-2, > 100 µM (inactive); with IGROV-1, 40.3 µM (inactive); in the assay with OVCAR-5, > 100 µM (inactive); in the assay with RPMI-8226 it was 18.5 µM (inactive); with HCT-15, 47.4 µM. In addition, the GI50 with UACC-62 is 40 µM (inactive); in the assay on SW-620 it was 96.2 µM (inactive); in the assay with TK-10, 70.6 µM (inactive); in the assay on DU-145, 56.8 µM (inactive); in the assay on SNB-19, 51.8 µM (inactive); with PC-3, 37.7 µM (inactive). For the same molecule, the GI50 in the assay with Hs-578T is 37 µM (inactive); in the assay on SK-MEL-5 it was 23.2 µM (inactive).
As to `COc1ccc2[nH]c3c([N+](=O)[O-])ccc(NCCCN(C)C)c3/c(=N/CCCN(C)C)c2c1`, the GI50 in the assay on HL-60 is 1.77 µM (inactive); in the assay on IGROV-1, 1.86 µM (inactive); in the assay with RPMI-8226 it was 0.635 µM (active); in the assay on HCT-15, 1.53 µM; in the assay on UACC-62 it was > 10 µM (inactive); in the assay on SW-620, 1.63 µM (inactive). Further, the GI50 with TK-10 is 2.36 µM (inactive); in the assay on DU-145, 3.24 µM (inactive); with T47D it was > 10 µM (inactive); with PC-3, 1.06 µM (active); in the assay with SK-MEL-5, 1.9 µM (inactive).
Take `CC(=S)NNC(=O)c1ccncc1`: the GI50 in the assay with HL-60 was > 100 µM (inactive); in the assay with SK-MEL-2 it was > 100 µM (inactive); with IGROV-1 it was > 100 µM (inactive); in the assay with OVCAR-5, > 100 µM (inactive); in the assay on NCI-H226, > 100 µM (inactive); with HCT-15, over 100 µM. Moreover, the GI50 with UACC-62, in the assay on COLO 205, in the assay with SW-620, with TK-10, in the assay with OVCAR-3 and in the assay on SNB-19 was > 100 µM (inactive) in each case. The GI50 with SK-MEL-5 is > 100 µM (inactive).
Regarding `N#Cc1c(-c2ccccc2)cc(Nc2cccc(C(F)(F)F)c2)n2c1nc1ccccc12`, the GI50 in the assay on OVCAR-5 was 2.68 µM (inactive); in the assay on RPMI-8226 it was 0.237 µM (active); in the assay with NCI-H226 it was 0.687 µM (active); in the assay with NCI/ADR-RES, 1.33 µM (inactive); in the assay with HCT-15, 1.38 µM; in the assay on COLO 205, 1.04 µM (active). Also, the GI50 with SW-620 is 3.05 µM (inactive); with TK-10, 2.56 µM (inactive); in the assay on OVCAR-3, 0.561 µM (active); in the assay with DU-145, 4.04 µM (inactive); with T47D it was 0.764 µM (active); in the assay on SK-MEL-5 it was 0.548 µM (active).
Turning to `Cc1ccc2c(c1)C(=O)/C(=C1/CCc3ccc(C)cc31)C2`, the GI50 in the assay on HL-60, in the assay with SK-MEL-2, in the assay on IGROV-1, in the assay with OVCAR-5, in the assay with RPMI-8226 and in the assay with NCI-H226 was > 100 µM (inactive) in each case. Also, the GI50 in the assay with NCI/ADR-RES was > 100 µM (inactive); with HCT-15 it was over 100 µM; in the assay with UACC-62 it was > 100 µM (inactive); in the assay on COLO 205 it was 57.9 µM (inactive); in the assay on SW-620, > 100 µM (inactive); with TK-10, > 100 µM (inactive). In addition, the GI50 in the assay on OVCAR-3 was > 100 µM (inactive); in the assay with DU-145 it was > 100 µM (inactive); in the assay on SNB-19, 87.5 µM (inactive); with T47D, 14.7 µM (inactive); in the assay with Hs-578T it was > 100 µM (inactive); with SK-MEL-5 it was > 100 µM (inactive).
In the case of `NC(Cc1ccc(B(O)O)cc1)C(=O)NC(CO)CO` (centres undefined), the GI50 in the assay on SK-MEL-2, with IGROV-1, in the assay with OVCAR-5, in the assay on RPMI-8226, in the assay on NCI-H226 and with NCI/ADR-RES was > 100 µM (inactive) in each case. Moreover, the GI50 in the assay on HCT-15 is over 100 µM; in the assay with UACC-62, > 100 µM (inactive); in the assay on COLO 205, > 100 µM (inactive); in the assay with SW-620, > 100 µM (inactive); with TK-10 it was > 100 µM (inactive); with OVCAR-3, > 100 µM (inactive). In addition, the GI50 in the assay with SNB-19, with PC-3, with Hs-578T and in the assay on SK-MEL-5 was > 100 µM (inactive) throughout.
